Test results: publication PMC6664820, “Novel natural and synthetic inhibitors of solute carriers SGLT1 and SGLT2” (Pharmacology Research & Perspectives, 2019)
“Also recorded” adds a separate entry of the source.

Legend:
[1] = molecular target: T1, hSGLT2 (Homo sapiens, UniProt P31639); experiment: SGLT2 inhibition assay for validation of screening hits and similar compounds (1‐NBD‐glucose uptake, CHO‐hSGLT2 cells); type: cell-based; details: for IC50: 1‐NBD‐glucose uptake, CHO‐hSGLT2, mean of n biological replicates, or individual measurements where n=2, read-out: SGLT2‐IC50 Mean; for inhibition at 50 µM: mean inhibition with 50 μmol/L inhibitor; for remaining activity at 5 µM / remaining activity at 50 µM: 0.5 h, mean, concentration not given, read-out: NORMALIZED SGLT2 ACTIVITY (%)
T1 sequence (P31639 1-672): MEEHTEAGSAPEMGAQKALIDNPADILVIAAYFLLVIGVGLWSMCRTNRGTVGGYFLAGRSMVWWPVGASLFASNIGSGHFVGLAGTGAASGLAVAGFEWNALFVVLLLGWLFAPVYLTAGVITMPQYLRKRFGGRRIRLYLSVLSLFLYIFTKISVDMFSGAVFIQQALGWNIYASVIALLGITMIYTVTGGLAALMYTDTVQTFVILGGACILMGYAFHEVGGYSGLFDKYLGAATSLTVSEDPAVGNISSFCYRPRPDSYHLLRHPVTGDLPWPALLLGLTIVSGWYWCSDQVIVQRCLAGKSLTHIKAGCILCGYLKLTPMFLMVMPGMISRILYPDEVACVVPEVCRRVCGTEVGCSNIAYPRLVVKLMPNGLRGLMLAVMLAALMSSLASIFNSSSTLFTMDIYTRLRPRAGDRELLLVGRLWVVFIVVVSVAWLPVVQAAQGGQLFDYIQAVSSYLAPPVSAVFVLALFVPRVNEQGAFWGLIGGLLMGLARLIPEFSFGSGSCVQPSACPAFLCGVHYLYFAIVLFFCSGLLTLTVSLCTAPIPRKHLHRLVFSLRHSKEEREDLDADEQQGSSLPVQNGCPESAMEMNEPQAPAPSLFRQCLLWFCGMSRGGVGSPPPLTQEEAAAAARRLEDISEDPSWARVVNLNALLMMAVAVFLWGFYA

[2] = molecular target: T2, SGLT1 (Homo sapiens, UniProt P13866); experiment: SGLT1 inhibition assay for validation of screening hits and similar compounds (1‐NBD‐glucose uptake, CHO‐hSGLT1 cells); type: cell-based; details: for IC50: 1‐NBD‐glucose uptake, CHO‐hSGLT1, mean of n biological replicates, or individual measurements where n=2, read-out: SGLT1‐IC50 Mean; for inhibition at 50 µM: mean inhibition with 50 μmol/L inhibitor, read-out: SGLT1 inhibition; for SGLT1/2 inhibition stated in words: SGLT1 and/or SGLT2, discussion statements; for remaining activity at 5 µM / remaining activity at 50 µM: 0.5 h, mean, concentration not given, read-out: NORMALIZED SGLT1 ACTIVITY (%)
T2 sequence (P13866 1-664): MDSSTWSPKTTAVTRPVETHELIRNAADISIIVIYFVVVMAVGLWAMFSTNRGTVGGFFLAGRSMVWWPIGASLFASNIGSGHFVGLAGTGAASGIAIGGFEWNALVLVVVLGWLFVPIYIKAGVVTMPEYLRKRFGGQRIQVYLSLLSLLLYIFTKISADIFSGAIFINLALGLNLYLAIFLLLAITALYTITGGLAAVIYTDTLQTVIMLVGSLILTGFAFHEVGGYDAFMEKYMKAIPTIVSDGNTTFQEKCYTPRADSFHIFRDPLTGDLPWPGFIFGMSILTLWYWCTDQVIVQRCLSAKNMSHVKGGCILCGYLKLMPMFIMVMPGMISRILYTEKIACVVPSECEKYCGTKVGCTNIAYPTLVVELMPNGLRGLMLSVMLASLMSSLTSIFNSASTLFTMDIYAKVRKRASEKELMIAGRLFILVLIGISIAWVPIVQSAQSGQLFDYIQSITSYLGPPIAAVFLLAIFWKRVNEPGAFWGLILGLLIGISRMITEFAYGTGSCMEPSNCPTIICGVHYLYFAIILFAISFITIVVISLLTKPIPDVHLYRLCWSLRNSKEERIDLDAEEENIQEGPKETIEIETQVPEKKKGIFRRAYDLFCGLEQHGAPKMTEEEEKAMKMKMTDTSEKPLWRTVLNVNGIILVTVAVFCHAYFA

[3] = molecular target: T2, SGLT1; experiment: Cellular uptake and transcellular transport of 14C‐α‐methylglucose by Caco‐2 cell monolayers; type: cell-based; set-up: Caco‐2 cells expressing endogenous SGLT1; host or cells: Caco-2; details: 90 minutes
Procedure: Caco‐2 cells (passage numbers 7 and 13) were seeded (29,700 cells) onto polycarbonate Transwell® inserts (6.5 mm diameter and 3.0 μm pores) and cultured for 21‐24 days to obtain differentiated polarized monolayers. Apical and basal medium was refreshed twice a week and the final medium refresh was done the day before the uptake and transport experiment. TransEpithelial Electrical Resistance (TEER) was measured with an EVOM^2 epithelial voltmeter (World Precision Instruments, Sarasota, USA) and inserts were used if TEER > 3000 Ω/cm^2. First, cells were washed twice apically and basally with D‐glucose free DMEM. Then, 100 μL (+)‐pteryxin dilutions (50 μmol/L and 500 μmol/L), P p.‐extract dilutions (1/200 and 1/2000), or 0.5% (v/v) DMSO vehicle control were applied apical in D‐glucose free DMEM with 0.3% (w/v) BSA and 40 nCi/mL ^14C‐α‐methylglucose. The basal acceptor wells (24‐well) contained 350 μL D‐glucose free DMEM with 0.3% (w/v) BSA. Then, cells were incubated in a humidified incubator at 37°C with 5% CO2 for 90 minutes. Inserts were transferred to a clean 24‐well plate and washed once with DMEM (with D‐glucose) and once with HBSS, with 1 mL at the basal and 100 μL at the apical side. Cells were lysed with 100 μL of 0.2 mol/L NaOH for 30 minutes at 37°C and lysates were analyzed by liquid scintillation counting on a Tri‐Carb 2910 TR (Perkin Elmer, Groningen, The Netherlands) to determine cellular ^14C‐α‐methylglucose uptake. Basal media were analyzed accordingly to determine transcellular ^14C‐α‐methylglucose transport. Mean ± SD ^14C‐α‐methylglucose uptake and transport were calculated from two biological replicates, each consisting of four technical replicates.

[4] = test system: transporters; set-up: method as in earlier work; details: known transporter targets, per category of inhibited transporters; cited from earlier work
[5] = molecular target: T2, SGLT1; experiment: cell-based; set-up: host or cells: CHO-K1; details: CHO, read-out: % of control remaining
[6] = molecular target: T1, hSGLT2; experiment: cell-based; set-up: host or cells: CHO-K1; details: CHO, read-out: % of control remaining
[7] = test system: CHO‐hSGLT1/2 cells; experiment: Cytotoxicity assay (ToxiLight, adenylate kinase leakage into CHO‐SGLT1/2 inhibition assay media); set-up: CYTOTOXICITY / CY[…], mean / CYTOTOXICITY (% of vehicle control) Mean / CYTOTOXICITY, mean / CY[…] (% of vehicle control) Mean: dose or concentration left out as unconfirmed; details: mean;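 note: bioluminescent read-out of adenylate kinase released from lysed cells into the medium, given relative to DMSO vehicle control defined as 0%, higher meaning more cytolysis; percent of DMSO vehicle control bioluminescence with vehicle set at 0%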
Procedure: The cytotoxicity of representative SGLT1/2 inhibitors and compounds from the different chemical clusters was tested. Cytotoxicity was determined using the ToxiLight bioassay kit according to the supplier's instructions. This nondestructive assay measures leakage of the enzyme adenylate kinase (AK) from damaged cells into the CHO‐SGLT1/2 inhibition assay media, ie the degree of cytolysis. […] Next, bioluminescence was measured using a FlexStation 3 Multi‐Mode Microplate Reader (Molecular Devices) by 1 second integrated reading. Cytotoxicity was expressed as the percentage of bioluminescence of the DMSO vehicle control which was set at 0%. If applicable, statistical outliers were determined using Grubbs’ test (alpha = 0.05) and excluded for calculation of the mean ± SD.

## CC=C(C)C(=O)OC1c2c(ccc3ccc(=O)oc23)OC(C)(C)C1OC(C)=O (stereo not drawn) [(+)‐pteryxin]
[1]
  IC50: 9 µM
[2]
  IC50: 12 µM
  inhibition at 50 µM: 89%
[3]; Caco‐2, 50 μmol/L
  Inhibition of 14C‐α‐methylglucose cellular uptake: 18%
  Inhibition of transcellular transport of 14C‐α‐methylglucose: 37%
[3]; Caco‐2, 500 μmol/L
  Inhibition of 14C‐α‐methylglucose cellular uptake: 91%
  Inhibition of transcellular transport of 14C‐α‐methylglucose: 89%

## CCCN1CCCC[C@H]1C(=O)Nc1c(C)cccc1C [ropivacaine, reference compound]
[4]
  INHIBITED TRANSPORTERS: SCN10A
[2]
  SGLT1/2 inhibition stated in words: novel SGLT1/2 inhibitors
  inhibition at 50 µM: 30%

## CC(C)COCC(CN(Cc1ccccc1)c1ccccc1)N1CCCC1 (stereo not drawn) [Bepridil, bepridil, reference compound]
[1]
  IC50: 14 µM
  inhibition at 50 µM: 70%
[4]
  INHIBITED TRANSPORTERS: CACNA1A, CACNA1H, CACNA2D2, KCNH2, KCNQ1, KCNH2
[2]
  IC50: 10 µM
  SGLT1/2 inhibition stated in words: showed SGLT1/2 inhibition
  inhibition at 50 µM: 74%

## C=C[C@H]1C[N@@]2CC[C@H]1C[C@H]2[C@H](O)c1ccnc2ccc(OC)cc12 [quinine, reference compound]
[1]
  remaining activity at 5 µM: 92%
  remaining activity at 50 µM: 66%
  inhibition at 50 µM: 34%
[4]
  INHIBITED TRANSPORTERS: SLC22A1, SLC22A2, SLC22A5, SLCO1A2, SLC22A4
[2]
  remaining activity at 5 µM: 101%
  remaining activity at 50 µM: 76%
  inhibition at 50 µM: 24%

## CC(=O)OC[C@H]1O[C@@H](O[C@@H]2[C@@H](O)[C@H](O[C@@H]3[C@H](O)C(C)(C)C[C@H]4C5=CC[C@@H]6[C@@]7(C)CC[C@H](O[C@@H]8O[C@H](C(=O)O)[C@@H](O)[C@H](O)[C@H]8O[C@@H]8O[C@H](CO)[C@H](O)[C@H](O)[C@H]8O[C@@H]8O[C@H](CO)[C@@H](O)[C@H](O)[C@H]8O)[C@](C)(CO)[C@@H]7CC[C@@]6(C)[C@]5(C)CC[C@@]34C)OC[C@@H]2O)[C@H](OC(C)=O)[C@@H](OC(C)=O)[C@@H]1OC(C)=O [Soyasaponin Ab]
[5]
  remaining activity at 5 µM: 104%
  remaining activity at 50 µM: 104%
[6]
  remaining activity at 5 µM: 106%
  remaining activity at 50 µM: 96.8%
[7]
  CYTOTOXICITY: 5

## CCCCN1CCCCC1C(=O)Nc1c(C)cccc1C (stereo not drawn) [Bupivacaine, bupivacaine, reference compound]
[1]
  IC50: 43 µM
[4]
  INHIBITED TRANSPORTERS: SCN10A
[2]
  IC50: 23 µM
  SGLT1/2 inhibition stated in words: novel SGLT1/2 inhibitors
  inhibition at 50 µM: 64%

## CC(CN(C)C)CN1c2ccccc2CCc2ccccc21 (stereo not drawn) [trimipramine, reference compound]
[4]
  INHIBITED TRANSPORTERS: SLC6A2, SLC6A3, SLC6A4
[2]
  SGLT1/2 inhibition stated in words: novel SGLT1/2 inhibitors
  inhibition at 50 µM: 43%

## CN1[C@@H]2CC[C@H]1C[C@@H](OC(c1ccccc1)c1ccccc1)C2 [benztropine]
[4]
  INHIBITED TRANSPORTERS: SLC6A2, SLC6A3, SCN10A

## C[C@@H]1O[C@@H](O[C@H]2[C@H](O[C@H]3CC[C@@]4(C)[C@@H](CC[C@]5(C)[C@@H]4CC=C4[C@@H]6CC(C)(C)CC[C@]6(C(=O)O[C@@H]6O[C@H](CO[C@@H]7O[C@H](CO)[C@@H](O[C@@H]8O[C@@H](C)[C@H](O)[C@@H](O)[C@H]8O)[C@H](O)[C@H]7O)[C@@H](O)[C@H](O)[C@H]6O)CC[C@]45C)[C@]3(C)CO)OC[C@H](O)[C@@H]2O)[C@H](O)[C@H](O)[C@H]1O [Hederacoside C]
[5]
  remaining activity at 5 µM: 97.9%
  remaining activity at 50 µM: 102%
[6]
  remaining activity at 5 µM: 113%
  remaining activity at 50 µM: 115%
[7]
  CYTOTOXICITY: -28

## C=C[C@H]1C[N@@]2CC[C@H]1C[C@@H]2[C@@H](O)c1ccnc2ccc(OC)cc12 [Quinidine, quinidine, reference compound]
[1]
  IC50: 56 µM
  remaining activity at 5 µM: 92%
  remaining activity at 50 µM: 51%
  inhibition at 50 µM: 49%
[4]
  INHIBITED TRANSPORTERS: SLC22A1, SLC22A2, SLC22A5, SLCO1A2, SLC22A4; also recorded: SLC22A8, SLCO1B1
[2]
  IC50: 62 µM
  remaining activity at 5 µM: 93%
  remaining activity at 50 µM: 50%
  inhibition at 50 µM: 50%
